Results reported in ChEMBL document CHEMBL1201862, “PubChem BioAssay data set” (2004).
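1) Cells in 96-well plates. 2) Compound, 48 h, 5 concentrations. 3) Linear interpolation between surrounding doses. 4) Unreached endpoint = highest concentration. The concentration for 50% growth inhibition is given as GI50.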 The source made the active and inactive calls. Rule as the data show it: active = GI50 up to about 1.1 µM and inactive = higher.

How the values were obtained:
Assay in all cases: NCI-60 cell line screen, 48 h
HOP-62 = test system: HOP-62
NCI-H460 = test system: NCI-H460
A498 = test system: A498
COLO 205 = test system: COLO 205
HCT-116 = test system: HCT-116
UACC-257 = test system: UACC-257
HCC 2998 = test system: HCC 2998
RPMI-8226 = test system: RPMI-8226
SK-OV-3 = test system: SK-OV-3
KM12 = test system: KM12
RXF 393 = test system: RXF 393
SW-620 = test system: SW-620
SK-MEL-28 = test system: SK-MEL-28
IGROV-1 = test system: IGROV-1
NCI-H522 = test system: NCI-H522
A549 = test system: A549
OVCAR-4 = test system: OVCAR-4

Measured: GI50

O=C1Sc2ccccc2C(=O)N2CCSC12 (stereo not drawn)
inactive: HOP-62 > 100 µM | NCI-H460 > 100 µM | A498 31 µM | COLO 205 > 100 µM | HCT-116 > 100 µM | UACC-257 > 100 µM | HCC 2998 > 100 µM | RPMI-8226 > 100 µM | SK-OV-3 > 100 µM | KM12 > 100 µM | RXF 393 > 100 µM | SW-620 > 100 µM | SK-MEL-28 > 100 µM | IGROV-1 > 10 µM

Clc1ccc(CCn2cncn2)cc1
inactive: HOP-62 > 100 µM | NCI-H460 > 100 µM | NCI-H522 > 100 µM | A498 > 100 µM | COLO 205 > 100 µM | A549 > 100 µM | OVCAR-4 > 100 µM | HCT-116 > 100 µM | UACC-257 > 100 µM | RPMI-8226 > 100 µM | SK-OV-3 > 100 µM | KM12 > 100 µM | RXF 393 > 100 µM | SW-620 > 100 µM | SK-MEL-28 > 100 µM | IGROV-1 > 100 µM

O=C(CC1(O)C(=O)Nc2ccccc21)c1ccc2ccccc2c1 (stereo not drawn)
inactive: HOP-62 > 100 µM | NCI-H460 > 100 µM | NCI-H522 99.5 µM | A498 > 100 µM | COLO 205 > 100 µM | A549 > 100 µM | OVCAR-4 > 100 µM | HCT-116 > 100 µM | UACC-257 > 100 µM | HCC 2998 > 100 µM | RPMI-8226 > 100 µM | SK-OV-3 > 100 µM | RXF 393 > 100 µM | SW-620 > 100 µM | SK-MEL-28 > 100 µM | IGROV-1 > 100 µM

Cc1cc(O)c(C(=O)CC2(O)C(=O)Nc3c(Cl)cc(Cl)cc32)c(=O)o1 (stereo not drawn)
inactive: HOP-62 > 100 µM | NCI-H460 > 100 µM | NCI-H522 > 100 µM | A498 > 100 µM | COLO 205 > 100 µM | A549 > 100 µM | OVCAR-4 > 100 µM | HCT-116 > 100 µM | UACC-257 > 100 µM | HCC 2998 > 100 µM | RPMI-8226 55.5 µM | SK-OV-3 > 100 µM | KM12 > 100 µM | SW-620 52.1 µM | SK-MEL-28 > 100 µM | IGROV-1 > 100 µM

NS(=O)(=O)c1ccc(NC(=O)C2C(=O)C(=O)N(c3ccc(S(N)(=O)=O)cc3)C2=O)cc1 (stereo not drawn)
inactive: HOP-62 > 100 µM | NCI-H522 > 100 µM | A498 > 100 µM | COLO 205 > 100 µM | A549 > 100 µM | OVCAR-4 > 100 µM | HCT-116 > 100 µM | UACC-257 > 100 µM | HCC 2998 > 100 µM | RPMI-8226 > 100 µM | SK-OV-3 > 100 µM | RXF 393 > 100 µM | SW-620 > 100 µM | SK-MEL-28 > 100 µM | IGROV-1 > 100 µM

Cc1cccc(C)c1NC(=O)CCc1nnc(S)[nH]1
inactive: HOP-62 > 100 µM | NCI-H460 > 100 µM | NCI-H522 > 100 µM | A498 > 100 µM | COLO 205 > 100 µM | A549 > 100 µM | OVCAR-4 > 100 µM | HCT-116 > 100 µM | HCC 2998 > 100 µM | RPMI-8226 > 100 µM | SK-OV-3 > 100 µM | RXF 393 > 100 µM | SW-620 > 100 µM | SK-MEL-28 > 100 µM | IGROV-1 > 100 µM

CCCCCCCCOCC(O)COC(=O)CCCCCCC (stereo not drawn)
inactive: HOP-62 > 100 µM | NCI-H460 > 100 µM | A498 > 100 µM | COLO 205 79.3 µM | A549 > 100 µM | OVCAR-4 34.4 µM | HCT-116 > 100 µM | UACC-257 51.3 µM | HCC 2998 30.7 µM | RPMI-8226 27.1 µM | SK-OV-3 > 100 µM | SW-620 > 100 µM | SK-MEL-28 > 100 µM | IGROV-1 > 100 µM

CC(=O)Nc1ccc(/C=C(\NC(=O)c2ccccc2)C(=O)NNS(=O)(=O)c2ccc(C)cc2)cc1
inactive: HOP-62 > 100 µM | NCI-H460 50.2 µM | NCI-H522 > 100 µM | COLO 205 25.8 µM | A549 > 100 µM | OVCAR-4 > 100 µM | HCT-116 > 100 µM | UACC-257 > 100 µM | HCC 2998 > 100 µM | RPMI-8226 22.5 µM | SK-OV-3 > 100 µM | KM12 > 100 µM | RXF 393 > 100 µM | SK-MEL-28 > 100 µM | IGROV-1 > 100 µM

CCOC(=O)/C(=C/c1ccco1)P(=O)(OCC)OCC
inactive: NCI-H460 > 100 µM | NCI-H522 > 100 µM | A498 > 100 µM | COLO 205 > 100 µM | A549 > 100 µM | OVCAR-4 > 100 µM | HCT-116 > 100 µM | UACC-257 > 100 µM | HCC 2998 > 100 µM | RPMI-8226 > 100 µM | SK-OV-3 > 100 µM | KM12 > 100 µM | SW-620 > 100 µM | SK-MEL-28 > 100 µM | IGROV-1 > 100 µM

O=C(c1ccco1)c1ccccc1C(=O)c1ccco1
inactive: HOP-62 > 100 µM | NCI-H460 > 100 µM | A498 > 100 µM | COLO 205 > 100 µM | A549 > 100 µM | OVCAR-4 > 100 µM | HCT-116 > 100 µM | UACC-257 > 100 µM | HCC 2998 > 100 µM | KM12 > 100 µM | RXF 393 > 100 µM | SW-620 > 100 µM | SK-MEL-28 > 100 µM | IGROV-1 > 100 µM

CCOc1ccccc1NC(=O)CCc1nnc(S)[nH]1
inactive: HOP-62 > 100 µM | NCI-H460 > 100 µM | NCI-H522 > 100 µM | COLO 205 > 100 µM | A549 > 100 µM | OVCAR-4 > 100 µM | HCT-116 > 100 µM | UACC-257 > 100 µM | HCC 2998 > 100 µM | RPMI-8226 > 100 µM | SK-OV-3 > 100 µM | KM12 > 100 µM | RXF 393 > 100 µM | SW-620 > 100 µM | SK-MEL-28 > 100 µM | IGROV-1 > 100 µM

O=C(Nc1cccc(O)c1)C(=O)C1C(=O)NC(=S)NC1=O
inactive: NCI-H522 > 100 µM | A498 > 100 µM | COLO 205 > 100 µM | A549 > 100 µM | OVCAR-4 > 100 µM | HCT-116 > 100 µM | UACC-257 > 100 µM | HCC 2998 > 100 µM | RPMI-8226 > 100 µM | SK-OV-3 > 100 µM | RXF 393 > 100 µM | SW-620 > 100 µM | SK-MEL-28 > 100 µM | IGROV-1 > 100 µM

CCOC(=O)[N-]c1ccc(S(=O)(=O)[O+](C)CCl)cc1.CCOC(=O)[N-]c1ccc(S(=O)(=O)[O+](C)CCl)cc1.NC(=O)N=O.NC(=O)OCCCl
inactive: HOP-62 > 100 µM | NCI-H460 > 100 µM | A498 > 100 µM | COLO 205 > 100 µM | A549 > 100 µM | HCT-116 > 100 µM | UACC-257 > 100 µM | HCC 2998 > 100 µM | SK-OV-3 > 100 µM | KM12 > 100 µM | SW-620 > 100 µM | SK-MEL-28 > 100 µM | IGROV-1 > 100 µM
